{"source": "paper PMC8691750", "about": "“Euphorbia Factor L2 ameliorates the Progression of K/BxN Serum-Induced Arthritis by Blocking TLR7 Mediated IRAK4/IKKβ/IRF5 and NF-kB Signaling Pathways” (Frontiers in Pharmacology, 2021)", "key": {"[1]": {"test_system": "K/BxN serum-transfer arthritis (STA) model", "experiment": "K/BxN serum-transfer arthritis (STA) model, arthritic index / clinical score", "assay_type": "in vivo, C57BL/6 mice", "conditions": "STA mice; DEX 30 mg/kg gavage daily", "experimental": "(§1) K/BxN serum was collected from K/BxN mice at 8 weeks of age, pooled, aliquoted and stored at -20 °C. K/BxN serum-transfer arthritis (STA) model was induced by intraperitoneal (i.p.) application of 150 μL of serum at day 0. Clinical score for arthritis severity was assessed using a 0–4 point scale for each paw at various time points (0–16 total score) as described previously ([Luo et al., 2011]). 8-week old male C57BL/6 mice were purchased from Dashuo Animal Center (China, Chengdu), maintained at 25°C, and exposed to 12-h light and dark cycles. Mice were fed with standard laboratory chow and water with 1 week of acclimatization. Naive mice were used as the control group. Except the control mice, all mice were i. p. injected with 150 μL of serum, then randomly divided into the following groups and treated with different compounds daily for the consecutive 8 days: 1) STA group; 2) Solvent control group, mice were gavaged with the solvent; 3) Dexamethasone (DEX) group, mice were gavaged with 30 mg/kg DEX; 4) EFL2 group 1, mice were gavaged with 40 mg/kg EFL2; 5) EFL2 group 2, mice were intraperitoneally injected with 15 mg/kg EFL2; 6) EFL2 group 3, […] were intraperitoneally injected with 40 mg/kg EFL2. […] All animal experiments were conducted in accordance with ethical regulation for animal care and use in China."}, "[2]": {"test_system": "TNF-α, IL-4, IL-17A, IL-1β and IL-6 in serum", "experiment": "Cytokines in sera of STA mice (CBA Multiplex kit, ELISA)", "assay_type": "in vivo, C57BL/6 mice", "conditions": "STA mice; DEX 30 mg/kg gavage", "experimental": "as §1\n(§2) IL-4, IL-17A and TNF-α in sera from different group mice were measured using CBA Multiplex kit (BD, United States). The concentrations of IL-1β and IL-6 in serum or supernatant were detected by ELISA Kit (MULTI SCIENCES, China) according to the manufacturers’ instructions."}, "[3]": {"test_system": "synovial hyperplasia and articular inflammatory cells infiltration in knee joints", "experiment": "Histological assessment (H&E) of knee joints of STA mice", "assay_type": "in vivo, C57BL/6 mice", "conditions": "DEX 30 mg/kg gavage", "experimental": "as §1\nThe left knee joints were removed on day 13 post STA and fixed in 4% formaldehyde overnight at 4°C. The tissues were decalcified in EDTA and sectioned after embedding in paraffin. 5 μm sections were deparaffinized with xylene, re-hydrated with 100, 95 and 80% ethanol and then stained with hematoxylin and eosin (H&E). Histopathological changes in the knee joints were measured using a semiquantitative scoring system (0–4 scale) to assess synovial hyperplasia and articular inflammatory cells infiltration as previously described ([Yamanishi et al., 2002])."}, "[4]": {"test_system": "TLR7 (R837) / TLR3 (poly:IC) induced cytokine production in RAW264.7 cells", "experiment": "ELISA of IL-1β and IL-6 in supernatant of R837 and/or poly:IC stimulated RAW264.7 cells", "assay_type": "cell-based, mouse", "experimental": "(§3) RAW264.7 cells (5×10^5/ml), BMDMs (5×10^5/ml) and PBMCs (2×10^6/ml) were plated in 96-well plates and incubated overnight. […] For the anti-inflammatory molecular mechanism study, RAW264.7 cells (5×10^5/ml) were plated in 96-well plates and stimulated with R837 (20 μg/ml) with or without the addition of NF-κB inhibitor (JSH-23, […]) for 24 h. After 24 h, the culture supernatant was collected for cytokines measurements.\nas §2"}, "[5]": {"test_system": "TLR7-mediated IRAK4/IKKβ/IRF5 signaling pathway", "experiment": "Western blot, IRAK4/IKKβ/IRF5 in R837-stimulated RAW264.7 cells", "assay_type": "cell-based, mouse", "conditions": "RAW264.7 cells; R837 alone", "experimental": "(§4) RAW264.7 cells (2×10^6 cells/well) were plated into 6-well plates and then incubated at 37°C in 5% CO2 for 24 h. After incubated with various concentrations of EFL2 (1, 5 and 10 µM) for 1 h, cells were then stimulated by R837 (20 μg/ml) for 30 min. Cell lysates were prepared by direct lysis in 20 µL IP buffer (Beyotime Biotechnology, Shanghai, China). After obtaining the whole cell extracts, the cytosolic and nuclear were seperated using Nuclear and Cytoplasmic Protein Extraction Kit (Beyotime Biotechnology, Shanghai, China). BCA Protein Assay Kit (Beyotime Biotechnology, Nantong, China) was applied to determine the protein concentrations. The bands corresponding to p- IKKα/β, IKKα/β, p-IκBα, IκBα, p-p65, p65, p-IRAK4, IRAK4, p-IKKβ, IKKβ, p-IRF5, IRF5, β-actin and Lamin B were visualized using a Western Blot Detection Chemiluminescence Kit (Merck). Protein extracted from the total lysates/cytoplasm and nucleus was quantified in relation to β-actin and Lamin B bands, respectively.\n(§5) The antibodies used in the experiments were as follows: rabbit anti-mouse IKKα/β polyclonal antibody (1:1,000, Abways, China), rabbit anti-mouse IκBα polyclonal antibody (1:1,000, Abgent, China), rabbit anti-mouse p65 polyclonal antibody (1:1,000, Abgent, China), rabbit anti-mouse phosphorylated IKKα (Ser176)/β (Ser177) (1:1,000, Abways, China), rabbit anti-mouse phosphorylated IκBα (1:1,000, Abcam, United States), rabbit anti-mouse phosphorylated p65 (1:1,000, Abcam, United States), rabbit anti-mouse IRAK4 polyclonal antibody (1:1,000, Proteintech, United States), rabbit anti-mouse phosphorylated IRAK4 (Thr345/Ser346) (1:1,000, Affinity, United States), rabbit anti-mouse IKKβ polyclonal antibody (1:1,000, Abbkine, United States), rabbit anti-mouse phosphorylated IKKβ (Ser177) (1:1,000, Abways, China), rabbit anti-mouse IRF5 polyclonal antibody (1:1,000, Immunoway, United States), rabbit anti-mouse phosphorylated IRF5 (Ser437) (1:1,000, Affinity, United States), anti-mouse actin monoclonal antibody (1:20,000, Transgen, China) and rabbit anti-mouse LaminB monoclonal antibody (1:5,000, Abways, China)."}, "[6]": {"test_system": "TLR7 (R837) induced cytokine production in PBMCs", "experiment": "ELISA of IL-1β and IL-6 in supernatant of R837 stimulated PBMCs", "assay_type": "cell-based, human", "conditions": "PBMCs; R837 alone", "experimental": "(§6) RAW264.7 cells, a mouse macrophage cell line, were cultured in DMEM medium containing 10% fetal bovine serum (FBS), 1% penicillin-streptomycin and maintained at 37 °C in 5% CO2 humidified air. Bone marrow-derived macrophages (BMDMs) generation was performed as following description. In brief, bone marrow cells were harvested from tibias and femurs of C57BL/6 mice and differentiated for 7 days in DMEM medium supplemented with 10% FBS, 1% penicillin-streptomycin and 50 ng/ml M-CSF. For human peripheral blood mononuclear cells (PBMCs) preparation, 5 ml peripheral venous blood was obtained from healthy donors in West China Hospital. PBMCs were isolated with Human Lymphocyte Separation Medium (LTS1077, Tian Jing, China) according to the manufacturer’s instructions. The experimental protocols were performed according to the approved guidelines established by the Institutional Human Research Subject Protection Committee of the Ethics Committee of West China Hospital, Sichuan University, China.\nRAW264.7 cells (5×10^5/ml), BMDMs (5×10^5/ml) and PBMCs (2×10^6/ml) were plated in 96-well plates and incubated overnight. […]\nas §2"}, "[7]": {"test_system": "TLR7-mediated NF-κB signaling pathway (IKKα/β, IκBα, p65)", "experiment": "Western blot, NF-κB pathway in R837-stimulated RAW264.7 cells", "assay_type": "cell-based, mouse", "conditions": "RAW264.7 cells; R837 alone", "experimental": "as §4, §5"}, "[8]": {"test_system": "TLR7 (R837) / TLR3 (poly:IC) induced cytokine production in BMDMs", "experiment": "ELISA of IL-1β and IL-6 in supernatant of R837 and/or poly:IC stimulated BMDMs", "assay_type": "cell-based, C57BL/6 mice", "experimental": "as §6, §3, §2"}, "[9]": {"test_system": "P65 and IRF5 translocation", "experiment": "Confocal microscopy of p65 and IRF5 translocation in RAW264.7 cells", "assay_type": "cell-based, mouse", "conditions": "R837 alone, immunofluorescence staining", "experimental": "P65 and IRF5 translocation activity was analyzed by confocal microscopy. Briefly, 1×10^5 RAW264.7 cells were plated on coverslips overnight. Cells were pretreated with various concentrations of EFL2 (1, 5 and 10 µM) for 1 h and then stimulated by R837 (20 μg/ml) for 30 min. After washed with ice-cold PBS, RAW264.7 cells were fixed with 4% paraformaldehyde for 20 min at room temperature. The coverslips were washed with PBS with 0.2% tween 20 and blocked with 5% goat serum. Primary antibodies were applied to coverslips overnight at 4°C, followed by secondary antibodies incubation for 1 h at room temperature. After three times wash, coverslips were mounted with Fluoroshield™ with DAPI (Solarbio, China) and images were acquired by confocal microscopy (ZEISS, Germany). Primary antibody: rabbit anti-mouse IRF5 (1:800, Abcam, China); rabbit anti-mouse p65 (1:1,000, Abcam, China). Secondary antibody: Alexa eFluor®488 conjugated goat anti-rabbit IgG (1:2000, Thermo Fisher Scientific, Carlsbad, United States)."}, "[10]": {"conditions": "RAW 264.7 cells, JSH-23 10 μM, 24 h"}}, "data": [{"compound": "C[C@@H]1C[C@H]2[C@@H]3CCC4=CC(=O)C=C[C@]4(C)[C@@]3(F)[C@@H](O)C[C@]2(C)[C@@]1(O)C(=O)CO", "note": "[DEX, Dexamethasone, reference compound]", "values": [{"measurement": "arthritis clinical scores", "setting": "[1]", "value": "significantly lowered"}, {"measurement": "IL-1β level in sera", "setting": "[2]", "value": "significantly reduced"}, {"measurement": "IL-6 level in sera", "setting": "[2]", "value": "significantly reduced"}, {"measurement": "inflammatory status and inflamed synovium in joints", "setting": "[3]", "value": "significantly inhibited"}]}, {"compound": "Cc1ccc(NCCCc2ccccc2)c(N)c1", "note": "[JSH-23]", "values": [{"measurement": "R837-induced IL-1β production", "setting": "[4]; [10]", "value": "to a large extent, blocked"}, {"measurement": "R837-induced IL-6 secretion", "setting": "[4]; [10]", "value": "only partially reduced"}]}, {"compound": "CC(C)Cn1cnc2c(N)nc3ccccc3c21", "note": "[R837, imiquimod, reference compound]", "values": [{"measurement": "phosphorylation of IRAK4 and IKKβ", "setting": "[5]", "value": "rapidly triggered"}, {"measurement": "IL-1β and IL-6 release in the supernatant", "setting": "[6]", "value": "robustly induced"}, {"measurement": "phosphorylation of IKKα/β and IκB-α", "setting": "[7]", "value": "rapidly occurs"}, {"measurement": "IL-1β and IL-6 release in the supernatant", "setting": "[4]; RAW264.7 cells, R837 alone (20 μg/ml)", "value": "robustly induced"}, {"measurement": "IL-1β and IL-6 release in the supernatant", "setting": "[8]; BMDMs, R837 alone (20 μg/ml)", "value": "robustly induced"}, {"measurement": "IRF5 translocation from cytoplasm to nucleus", "setting": "[9]", "value": "dramatically induced"}]}, {"compound": "poly (I:C) [reference compound]", "values": [{"measurement": "IL-1β and IL-6 production", "setting": "[4]; R837-stimulated RAW264.7 cells, addition of poly (I:C)", "value": "did enhance"}, {"measurement": "IL-1β and IL-6 secretion", "setting": "[4]; RAW264.7 cells, poly (I:C) alone (1 μg/ml)", "value": "significantly increased"}, {"measurement": "IL-1β and IL-6 production", "setting": "[8]; BMDMs, poly (I:C) alone (1 μg/ml)", "value": "did not affect"}, {"measurement": "IL-1β and IL-6 production", "setting": "[8]; R837-stimulated BMDMs, addition of poly (I:C)", "value": "did enhance"}]}]}
